Reference: patent US20160279166A1, “TREATING AGENT AND TREATING METHOD FOR THE EXAMINATION OR OPERATION OF THE LARGE INTESTINE” (KYOWA CHEMICAL INDUSTRY CO., LTD., priority 2013, published 2016)

Legend:
rats [1] = experiment: Defecation state (soft stool) of rats 9 hours after administration; assay type: in vivo, rat; conditions: oral, after 9 hours, magnesium oxide 700 mg/kg, fiber powders 4500 mg/kg, fiber liquid 4500 mg/kg as administered
Procedure: (§1) Magnesium oxide particles and water-soluble dietary fibers were administered to rats for animal testing to check the defecation states after 9 hours. Laparotomy was made on the rats after 9 hours to measure the amount of remaining feces, the amount of dry feces and the content of water in the intestinal tract.
(§2) A preparation containing 1.4 g of magnesium oxide particles and 9 g of water-soluble dietary fiber powders was used to administer 700 mg/kg of the magnesium oxide particles and 4,500 mg/kg of the water-soluble dietary fiber powders to rats. The magnesium oxide in use was magnesium oxide particles having an average secondary particle diameter specified in the present invention. The water-soluble dietary fibers in use were reduced indigestible dextrin specified in the present invention.
The total suspension liquid doses to test groups were fixed. […] The defecation state was checked after 9 hours, and the amount of remaining feces, the amount of dry feces and the content of water in the large intestine of each rat were measured to evaluate the effects on the properties of feces of the magnesium oxide particles and the water-soluble dietary fibers.

rats [2] = experiment: Laparotomy of rats after 9 hours: remaining feces, dry feces and water content in the large intestinal tract; assay type: in vivo, rat
Procedure: as §1, §2
The total suspension liquid doses to test groups were fixed. When the magnesium oxide particles and a mixture of the magnesium oxide particles and the water-soluble dietary fiber powders were administered, 5 ml/kg of them was administered, and when they were not administered, 0.05% CMC-NA was administered. When the water-soluble dietary fiber liquid was administered, 10 ml/kg of it was administered and when the water-soluble dietary fiber liquid was not administered, 10 ml/kg of water was administered. The defecation state was checked after 9 hours, and the amount of remaining feces, the amount of dry feces and the content of water in the large intestine of each rat were measured to evaluate the effects on the properties of feces of the magnesium oxide particles and the water-soluble dietary fibers.

rats [3] = experiment: Defecation state (diarrhea) of rats after 9 hours with varied amount of ingested water; assay type: in vivo, rat; conditions: oral, magnesium oxide 700 mg/kg
Procedure: Magnesium oxide particles were administered to rats for animal testing to check the defecation states after 9 hours. At this point, the amount of water to be taken was increased and decreased to evaluate the effect on laxative action of the amount of water to be taken.
A preparation containing magnesium oxide as an effective component and crystalline cellulose, croscarmellose and calcium stearate as additives was used. […] The magnesium oxide in use is magnesium oxide particles having an average secondary particle diameter specified in the present invention.
The defecation state of each test group was checked after 9 hours so as to calculate the water-like feces excretion rate and evaluate the effect on the properties of feces of the amount of ingested water when the magnesium oxide particles were administered.

large intestine = experiment: CT examination of the large intestine: evaluation of remaining feces, remaining water and overall evaluation after pretreatment; assay type: in vivo, human; conditions: conclusion from CT overall evaluation
Procedure: The large intestine is divided into 6 parts in order to evaluate remaining feces and remaining water in each part in five stages from an image of the large intestine at a supine position (SU) and a lateral recumbent position (PR) obtained from CT examination. Further, overall evaluation was carried out from the obtained evaluation results.
The large intestine is divided into the following six parts.
C: appendix A: ascending colon T: transverse colon D: descending colon S: sigmoid colon R: rectum
The remaining feces were evaluated in five stages according to the existence of movement and a shape change.
0: difficult to evaluate 1: sticks to a mucous membrane 2: no movement and no shape change 3: moved and changed in shape 4: almost no remaining feces
The remaining water was evaluated in the following five stages according to its proportion to the circumference.
0: 4/4 of the circumference is under water (complete submersion). 1: 3/4 of the circumference is under water 2: 2/4 of the circumference is under water 3: 1/4 of the circumference is under water (submersion of semilunar pleat) 4: almost no submersion
The overall evaluation was made in the following five stages.
0: not useful 1: it cannot be said whether it is useful or not 2: rather useful 3: useful 4: very useful
3 g of MgO for each examination was divided in two portions to be administered as the pretreatment of the examination. […]

[4] = large intestinal tract after 9 hours, magnesium oxide 700 mg/kg, fiber powders 4500 mg/kg, fiber liquid 4500 mg/kg as administered

[O]=[Mg] [Magnesium oxide particles, magnesium oxide]
Proportion having soft stool (number of rats having soft stool/number of test rats) (rats [1]): 3/5 | amount of dry feces (in words) (rats [2]; after 9 hours): reduced | content of water (in words) (rats [2]; after 9 hours): increased | Amount of dry feces (rats [2]; [4]): 12% | Amount of remaining feces (rats [2]; [4]): 3.69 g | Content of water (rats [2]; [4]): 88% | Proportion causing diarrhea (number of rats suffering from diarrhea/number of test rats) (rats [3]; water 1 mL/kg): 3/5 | Proportion causing diarrhea (number of rats suffering from diarrhea/number of test rats) (rats [3]; water 10 mL/kg): 4/5 | Proportion causing diarrhea (number of rats suffering from diarrhea/number of test rats) (rats [3]; water 35 mL/kg): 5/5 | effectiveness as a treating agent for the examination or operation of the large intestine (in words) (large intestine): extremely effective
